# Experimental data published in US20070154981A1, “Insulin-producing cells derived from stem cells” (THE BOARD of TRUSTEES of the LELAND STANFORD JUNIOR …, priority 2003, published 2007).
# Tested on: human NS cells
# Assay: Insulin content of IPCCs derived from human NS cells, by ELISA
# Assay type: cell-based
# Description: Human NS cells from StemCells Inc. (Palo Alto, Calif.). Until stage 1, cells are maintained in neurospheres as described in Uchida et al, 2000, Proc Natl Acad Sci U S A. 2000 Dec. 19;97(26):14720-5. […]
smiles,measurement,setting,value
"CC1=C(/C=C/C(C)=C/C=C/C(C)=C/C(=O)O)C(C)(C)CCC1 [retinoic acid, all-trans-Retinoic acid]",insulin levels relative to levels found in human pancreatic islets,"1 micromolar retinoic acid for 6 days, stage 2 IPCCs, ELISA",0.1%
same,insulin production compared with cells cultured with SHH and retinoic acid,retinoic acid alone versus SHH and retinoic acid,higher level of insulin production
